Source: patent publication EP4763845A1, “CYANO AROMATIC RING DERIVATIVE AND PHARMACEUTICAL USE THEREOF” (Haisco Pharmaceutical Group Co., Ltd., priority 2023, dated 2025)

What follows are molecules tested against T1, AR protein (Homo sapiens, UniProt P10275) (assay: Detection of AR degradation in VCaP cells (automated western blot)). Conditions: AR protein in VCaP cells, concentration of 30 nM, 24 hours.
T1 construct: VCap is a human prostate cancer cell line purchased from ATCC; host or cells: VCaP human prostate cancer cells
T1 sequence (P10275 1-920): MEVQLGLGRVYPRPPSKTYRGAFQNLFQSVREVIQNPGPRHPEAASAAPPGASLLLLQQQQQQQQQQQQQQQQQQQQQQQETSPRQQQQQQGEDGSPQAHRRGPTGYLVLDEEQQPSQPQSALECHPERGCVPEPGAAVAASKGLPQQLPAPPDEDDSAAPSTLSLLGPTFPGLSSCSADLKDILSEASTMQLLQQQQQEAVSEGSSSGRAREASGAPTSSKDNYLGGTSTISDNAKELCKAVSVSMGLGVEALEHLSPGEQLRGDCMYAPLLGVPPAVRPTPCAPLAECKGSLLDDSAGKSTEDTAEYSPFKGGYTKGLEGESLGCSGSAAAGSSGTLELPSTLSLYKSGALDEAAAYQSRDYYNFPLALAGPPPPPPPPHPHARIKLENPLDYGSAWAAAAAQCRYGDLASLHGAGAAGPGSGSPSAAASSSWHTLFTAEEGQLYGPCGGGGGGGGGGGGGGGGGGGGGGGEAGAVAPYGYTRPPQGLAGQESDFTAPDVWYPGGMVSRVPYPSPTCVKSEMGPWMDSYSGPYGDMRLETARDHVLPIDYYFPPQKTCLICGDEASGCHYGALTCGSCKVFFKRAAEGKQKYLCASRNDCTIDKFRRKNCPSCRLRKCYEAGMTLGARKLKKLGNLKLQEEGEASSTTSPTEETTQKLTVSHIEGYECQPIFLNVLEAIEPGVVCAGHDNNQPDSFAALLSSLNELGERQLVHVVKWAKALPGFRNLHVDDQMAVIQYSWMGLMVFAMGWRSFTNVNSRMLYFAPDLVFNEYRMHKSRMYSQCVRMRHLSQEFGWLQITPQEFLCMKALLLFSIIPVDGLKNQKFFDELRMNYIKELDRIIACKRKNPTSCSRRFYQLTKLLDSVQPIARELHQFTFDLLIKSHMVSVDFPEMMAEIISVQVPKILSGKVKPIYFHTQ
Type: cell-based
Description: VCap is a human prostate cancer cell line purchased from ATCC and cultured under the following conditions: DMEM + 10% FBS + 1% penicillin-streptomycin solution. The cells were cultured in a 37°C, 5% CO2 incubator. The cells were seeded in a 6-well plate, with 5 × 10^5 cells/well. After seeding, compounds at various concentrations were added, and the plate was incubated for 24 hours in the 37°C, 5% CO2 incubator. Following incubation, the cells were harvested and RIPA lysis buffer (beyotime, Cat. P0013B) was added. The cells were lysed on ice for 15 minutes and centrifuged at 12,000 rpm at 4°C for 10 minutes. The supernatant protein samples were collected and the protein was quantified using the BCA kit (Beyotime, Cat. P0009). Then the protein was diluted to 0.25 mg/mL. The expressions of AR (CST, Cat.5153S) and the internal reference β-actin (CST, Cat. 3700S) were detected using a fully automated western blot quantitative analyser (Proteinsimple). Using the "Compass for SW" software, the relative peak area of AR was calculated when the internal reference area was 10,000. The proportion of AR relative to the solvent control group at various drug concentrations was calculated according to Equation (1), where ARtreat represents the relative peak area of the compound-treated group, and ARsolvent represents the relative peak area of the solvent control group. The processed data obtained from Equation (1) were analysed using GraphPad Prism 8.3.0 software, and the DC50 value was calculated using a four-parameter nonlinear regression model. The degradation rate at a specified concentration was determined as 100-AR%. AR% = ARtreat/ ARsolvent × 100% [formula]

Degradation rate % [%]	SMILES
>70	COc1cc(O[C@H]2C(C)(C)[C@H](NC(=O)c3ccc(N4CCC5(CC4)CC(N4CCN6c7cc(F)c(C8CCC(=O)NC8=O)cc7CC[C@H]6C4)C5)cc3)C2(C)C)ccc1C#N (stereo partly drawn) [Trifluoroacetate of compound 121]
>70	CC1(C)[C@H](NC(=O)c2ccc(N3CCC(CN4CCN5c6cc(F)c(C(=O)N[C@H]7CCC(=O)NC7=O)cc6CC[C@@H]5C4)CC3)cc2)C(C)(C)[C@H]1Oc1ccc(C#N)c(C2CC2)c1 [Compound 119]

SMILES	Degradation rate % [%]
CC#CCOc1cc(O[C@H]2C(C)(C)[C@H](NC(=O)c3ccc(N4CCC(CN5CCN6c7cc(F)c(C(=O)N[C@H]8CCC(=O)NC8=O)cc7CC[C@@H]6C5)CC4)cc3)C2(C)C)ccc1C#N [Trifluoroacetate of compound 99]	>70

Same assay, conditions: degradation of AR protein in VCaP cells, 24 hours incubation; read-out: DC50

SMILES	DC50 [nM]
CC1(C)[C@H](NC(=O)c2ccc(N3CCC(CN4CCN5c6cc(F)c(C7CCC(=O)NC7=O)cc6CC[C@H]5C4)CC3)cc2)C(C)(C)[C@H]1Oc1ccc(C#N)c(Cl)c1 (stereo partly drawn) [Compound 49]	< 100
COc1cc(O[C@H]2C(C)(C)[C@H](NC(=O)c3ccc(N4CCC(N5CCN6c7cc(F)c(C8CCC(=O)NC8=O)cc7CC[C@@H]6C5)CC4)cc3)C2(C)C)ccc1C#N (stereo partly drawn) [Trifluoroacetate of compound 20]	< 100
COc1cc(O[C@H]2C(C)(C)[C@H](NC(=O)c3ccc(N4CCC5(CC4)CC(CN4CCN6c7cc(F)c(C8CCC(=O)NC8=O)cc7CC[C@@H]6C4)C5)cc3)C2(C)C)ccc1C#N (stereo partly drawn) [Trifluoroacetate of compound 9]	< 100
COc1cc(O[C@H]2C(C)(C)[C@H](NC(=O)c3ccc(N4CCC(N5CCN6c7cc(F)c(C(=O)N[C@H]8CCC(=O)NC8=O)cc7CC[C@@H]6C5)CC4)cc3)C2(C)C)ccc1C#N [Trifluoroacetate of compound 22]	< 100
[2H]C([2H])([2H])Oc1cc(O[C@H]2C(C)(C)[C@H](NC(=O)c3ccc(N4CCC5(CC4)CC(CN4CCN6c7cc(F)c(C8CCC(=O)NC8=O)cc7CC[C@H]6C4)C5)cc3)C2(C)C)ccc1C#N (stereo partly drawn) [Compound 43]	< 100
COc1cc(O[C@H]2C(C)(C)[C@H](NC(=O)c3ccc(N4CCC(CN5CCN6c7ncc(C8CCC(=O)NC8=O)cc7CC[C@H]6C5)CC4)cc3)C2(C)C)ccc1C#N (stereo partly drawn) [Compound 83]	< 100
CC1(C)[C@H](NC(=O)c2ccc(N3CCC4(CC3)CC(CN3CCN5c6cc(F)c(C(=O)N[C@H]7CCC(=O)NC7=O)cc6CC[C@@H]5C3)C4)cc2)C(C)(C)[C@H]1Oc1ccc(C#N)c(Cl)c1 [Compound 58]	< 100
COc1cc(O[C@H]2C(C)(C)[C@H](NC(=O)c3ccc(N4CCC5(CC4)CC(CN4CCN6c7cc(F)c(C(=O)N[C@H]8CCC(=O)NC8=O)cc7CC[C@@H]6C4)C5)cc3)C2(C)C)ccc1C#N [Trifluoroacetate of compound 5]	< 100
COc1cc(O[C@H]2C(C)(C)[C@H](NC(=O)c3ccc(N4CCC(N5CCN6c7cc(F)c(C(=O)N[C@@H]8CCC(=O)NC8=O)cc7CC[C@H]6C5)CC4)cc3)C2(C)C)ccc1C#N [Trifluoroacetate of compound 25]	< 100
COc1cc(O[C@H]2C(C)(C)[C@H](NC(=O)c3ccc(N4CCC(CN5CCN6c7cc(F)c(C(=O)N[C@@H]8CCC(=O)NC8=O)cc7CC[C@H]6C5)CC4)cc3)C2(C)C)ccc1C#N [Compound 14]	< 100
COc1cc(O[C@H]2C(C)(C)[C@H](NC(=O)c3ccc(N4CCC(N5CCN6c7cc(F)c(C(=O)N[C@H]8CCC(=O)NC8=O)cc7CC[C@H]6C5)CC4)cc3)C2(C)C)ccc1C#N [Trifluoroacetate of compound 24]	< 100
Cc1cc(O[C@H]2C(C)(C)[C@H](NC(=O)c3ccc(N4CCC(CN5CCN6c7cc(F)c(N8CCC(=O)NC8=O)cc7CC[C@@H]6C5)CC4)cc3)C2(C)C)cc(C)c1C#N [Compound 82]	< 100
COc1cc(O[C@H]2C(C)(C)[C@H](NC(=O)c3ccc(N4CCC5(CC4)CC(N4CCN6c7cc(F)c(C(=O)N[C@H]8CCC(=O)NC8=O)cc7CC[C@H]6C4)C5)cc3)C2(C)C)ccc1C#N [Trifluoroacetate of compound 18]	< 100
CC1(C)[C@H](NC(=O)c2ccc(N3CCC4(CC3)CC(CN3CCN5c6cc(F)c(N7CCC(=O)NC7=O)cc6CC[C@@H]5C3)C4)cc2)C(C)(C)[C@H]1Oc1ccc(C#N)c(Cl)c1 [Compound 56]	< 100
Cc1cc(O[C@H]2C(C)(C)[C@H](NC(=O)c3ccc(N4CCC(CN5CCN6c7cc(F)c(C8CCC(=O)NC8=O)cc7CC[C@H]6C5)CC4)cc3)C2(C)C)cc(C)c1C#N (stereo partly drawn) [Compound 78]	< 100
CC1(C)[C@H](NC(=O)c2ccc(N3CCC(CN4CCN5c6cc(F)c(C7CCC(=O)NC7=O)cc6CC[C@@H]5C4)CC3)cc2)C(C)(C)[C@H]1Oc1ccc(C#N)c(Cl)c1 (stereo partly drawn) [Compound 48]	< 100
CC1(C)[C@H](NC(=O)c2ccc(N3CCC4(CC3)CC(CN3CCN5c6cc(F)c(C7CCC(=O)NC7=O)cc6CC[C@H]5C3)C4)cc2)C(C)(C)[C@H]1Oc1ccc(C#N)c(Cl)c1 (stereo partly drawn) [Compound 55]	< 100

The next lines start with the values.

DC50 [nM]	SMILES
< 100	COc1cc(O[C@H]2C(C)(C)[C@H](NC(=O)c3ccc(N4CCC(N5CCN6c7cc(F)c(C8CCC(=O)NC8=O)cc7CC[C@H]6C5)CC4)cc3)C2(C)C)ccc1C#N (stereo partly drawn) [Trifluoroacetate of compound 21]
< 100	Cc1cc(O[C@H]2C(C)(C)[C@H](NC(=O)c3ccc(N4CCC(CN5CCN6c7cc(F)c(N8CCC(=O)NC8=O)cc7CC[C@H]6C5)CC4)cc3)C2(C)C)cc(C)c1C#N [Compound 80]
< 100	CC1(C)[C@H](NC(=O)c2ccc(N3CCC4(CC3)CC(CN3CCN5c6cc(F)c(C7CCC(=O)NC7=O)cc6CC[C@@H]5C3)C4)cc2)C(C)(C)[C@H]1Oc1ccc(C#N)c2ncccc12 (stereo partly drawn) [Compound 72]
< 100	COc1cc(O[C@H]2C(C)(C)[C@H](NC(=O)c3ccc(N4CCC5(CC4)CC(CN4CCN6c7cc(F)c(C8CCC(=O)NC8=O)cc7CC[C@H]6C4)C5)cc3)C2(C)C)ccc1C#N (stereo partly drawn) [Trifluoroacetate of compound 10]
< 100	COc1cc(O[C@H]2C(C)(C)[C@H](NC(=O)c3ccc(N4CCC(CN5CCN6c7cc(F)c(N8CCC(=O)NC8=O)cc7CC[C@@H]6C5)CC4)nn3)C2(C)C)ccc1C#N [Trifluoroacetate of compound 62]
< 100	CC1(C)[C@H](NC(=O)c2ccc(N3CCC(CN4CCN5c6cc(F)c(N7CCC(=O)NC7=O)cc6CC[C@H]5C4)CC3)cc2)C(C)(C)[C@H]1Oc1ccc(C#N)c(Cl)c1 [Compound 51]
< 100	COc1cc(O[C@H]2C(C)(C)[C@H](NC(=O)c3ccc(N4CCC5(CC4)CC(N4CCN6c7cc(F)c(N8CCC(=O)NC8=O)cc7CC[C@H]6C4)C5)cc3)C2(C)C)ccc1C#N [Trifluoroacetate of compound 84]
< 100	COc1cc(O[C@H]2C(C)(C)[C@H](NC(=O)c3ccc(N4CCC(CN5CCN6c7ccc(N8CCC(=O)NC8=O)cc7CCC6C5)CC4)cc3)C2(C)C)ccc1C#N (stereo partly drawn) [Compound 15]
< 100	COc1cc(O[C@H]2C(C)(C)[C@H](NC(=O)c3ccc(N4CCC(CN5CCN6c7cc(F)c(N8CCC(=O)NC8=O)cc7CC[C@H]6C5)CC4)nn3)C2(C)C)ccc1C#N [Trifluoroacetate of compound 63]
< 100	[2H]C([2H])([2H])Oc1cc(O[C@H]2C(C)(C)[C@H](NC(=O)c3ccc(N4CCC5(CC4)CC(CN4CCN6c7cc(F)c(N8CCC(=O)NC8=O)cc7CC[C@@H]6C4)C5)cc3)C2(C)C)ccc1C#N [Trifluoroacetate of compound 44]
